Where two headings read alike, the source gives them in different places.
Columns and labels:
DDR1 [1] = molecular target: T1, DDR1 (Homo sapiens, UniProt Q08345); test: DDR1 cell based assay (PathHunter U2OS DDR1 assay); parameters: host or cells: U2OS-DDR1 (PathHunter); conditions: U2OS-DDR1 cells, bovine Type II Collagen 20 μg/ml
Procedure: The inhibition of DDR1 receptor activation by compounds was evaluated by PathHunter® U2OS DDR1 assay (Eurofins DiscoverX), according to the manufacturer's instructions. Briefly, U2OS-DDR1 cells were seeded in white 384-well plates at a density of 5000 cells/well and incubated for 2 hours at 37° C. and 5% CO2. Cells were then treated with compounds at different concentrations and incubated for 30 minutes, before stimulation with bovine Type II Collagen 20 μg/ml and incubation overnight at 37° C. and 5% CO2. PathHunter Detection Reagents were prepared according to the protocol provided by DiscoverX and 20 μl/well of this mix were added to each well. After incubating the plates for 1 hour at room temperature in the dark, luminescence signal was acquired with a plate reader. Raw data were normalized to vehicle control (0% for normalization) and positive control (100% for normalization; cells treated with 20 μg/ml collagen II) and IC50 parameters were calculated in GraphPad Prism 8.0 software, using sigmoidal dose-response curve fitting with variable slope.

DDR1 [2] = molecular target: T1, DDR1; test: DDR1 binding assay (LanthaScreen Europium Kinase Binding assay); parameters: purchased Carna Biosciences
Procedure: (§1) DDR1 and DDR2 binding assays were performed using Life Technologies LanthaScreen™ Europium Kinase Binding assay. The compounds were incubated with 5 nM DDR1 (Carna Biosciences) or 5 nM DDR2 (Life Technologies) for 1 hour at room temperature in white 384-well OptiPlate (PerkinElmer), containing 20 nM or 10 nM Kinase Tracer 178 respectively and 2 nM Europium labelled anti-GST antibody (Life Technologies) in assay buffer (50 mM HEPES pH 7.5, 10 mM MgCl2, 1 mM EGTA and 0.01% BRIJ35).
(§2) The ratio of fluorescence emission 665 nm/615 nm after excitation at 340 nm was obtained using the Tecan Spark 20M plate reader. IC50 values were determined in GraphPad Prism 7.0 software, using 4 parameter model: log(inhibitor) vs. response. IC50 values were converted in Ki using the Cheng-Prusoff equation

DDR2 = molecular target: T2, DDR2 (Homo sapiens, UniProt Q16832); test: DDR2 binding assay (LanthaScreen Europium Kinase Binding assay); parameters: purchased Life Technologies
T2 sequence (Q16832 22-855): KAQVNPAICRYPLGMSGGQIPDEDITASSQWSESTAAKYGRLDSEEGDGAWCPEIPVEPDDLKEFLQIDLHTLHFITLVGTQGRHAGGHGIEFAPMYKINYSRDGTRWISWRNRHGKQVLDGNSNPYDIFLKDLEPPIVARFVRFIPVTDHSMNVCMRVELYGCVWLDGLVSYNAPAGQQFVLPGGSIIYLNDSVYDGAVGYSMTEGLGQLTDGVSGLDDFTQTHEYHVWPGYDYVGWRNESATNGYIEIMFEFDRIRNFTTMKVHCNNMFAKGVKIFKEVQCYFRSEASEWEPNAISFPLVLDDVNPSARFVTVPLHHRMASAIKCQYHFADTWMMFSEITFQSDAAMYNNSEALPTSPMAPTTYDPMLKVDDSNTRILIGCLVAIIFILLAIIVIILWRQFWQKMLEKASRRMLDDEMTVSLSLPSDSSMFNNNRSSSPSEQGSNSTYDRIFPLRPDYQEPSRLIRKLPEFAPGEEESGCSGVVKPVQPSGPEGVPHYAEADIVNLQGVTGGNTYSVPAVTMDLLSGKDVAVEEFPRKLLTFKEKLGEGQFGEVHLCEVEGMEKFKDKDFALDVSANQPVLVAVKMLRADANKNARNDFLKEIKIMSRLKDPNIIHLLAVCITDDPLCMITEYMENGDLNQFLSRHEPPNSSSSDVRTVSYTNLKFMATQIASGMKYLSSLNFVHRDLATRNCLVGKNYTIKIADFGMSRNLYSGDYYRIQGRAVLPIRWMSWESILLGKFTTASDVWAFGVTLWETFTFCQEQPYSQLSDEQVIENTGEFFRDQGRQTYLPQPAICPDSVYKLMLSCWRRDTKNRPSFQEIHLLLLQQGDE
Procedure: as §1, §2

[3] = binding assay, 5 nM DDR1, 20 nM Kinase Tracer 178, Ki from IC50 by Cheng-Prusoff, read-out: Ki DDR1
[4] = binding assay, 5 nM DDR2, 10 nM Kinase Tracer 178, Ki from IC50 by Cheng-Prusoff, read-out: Ki DDR2
[5] = 5 nM DDR1, 20 nM Kinase Tracer 178, 1 hour at room temperature, IC50 converted in Ki using the Cheng-Prusoff equation, read-out: DDR1 Ki
[6] = 5 nM DDR2, 10 nM Kinase Tracer 178, 1 hour at room temperature, IC50 converted in Ki using the Cheng-Prusoff equation, read-out: DDR2 Ki

T1 sequence (Q08345 19-913): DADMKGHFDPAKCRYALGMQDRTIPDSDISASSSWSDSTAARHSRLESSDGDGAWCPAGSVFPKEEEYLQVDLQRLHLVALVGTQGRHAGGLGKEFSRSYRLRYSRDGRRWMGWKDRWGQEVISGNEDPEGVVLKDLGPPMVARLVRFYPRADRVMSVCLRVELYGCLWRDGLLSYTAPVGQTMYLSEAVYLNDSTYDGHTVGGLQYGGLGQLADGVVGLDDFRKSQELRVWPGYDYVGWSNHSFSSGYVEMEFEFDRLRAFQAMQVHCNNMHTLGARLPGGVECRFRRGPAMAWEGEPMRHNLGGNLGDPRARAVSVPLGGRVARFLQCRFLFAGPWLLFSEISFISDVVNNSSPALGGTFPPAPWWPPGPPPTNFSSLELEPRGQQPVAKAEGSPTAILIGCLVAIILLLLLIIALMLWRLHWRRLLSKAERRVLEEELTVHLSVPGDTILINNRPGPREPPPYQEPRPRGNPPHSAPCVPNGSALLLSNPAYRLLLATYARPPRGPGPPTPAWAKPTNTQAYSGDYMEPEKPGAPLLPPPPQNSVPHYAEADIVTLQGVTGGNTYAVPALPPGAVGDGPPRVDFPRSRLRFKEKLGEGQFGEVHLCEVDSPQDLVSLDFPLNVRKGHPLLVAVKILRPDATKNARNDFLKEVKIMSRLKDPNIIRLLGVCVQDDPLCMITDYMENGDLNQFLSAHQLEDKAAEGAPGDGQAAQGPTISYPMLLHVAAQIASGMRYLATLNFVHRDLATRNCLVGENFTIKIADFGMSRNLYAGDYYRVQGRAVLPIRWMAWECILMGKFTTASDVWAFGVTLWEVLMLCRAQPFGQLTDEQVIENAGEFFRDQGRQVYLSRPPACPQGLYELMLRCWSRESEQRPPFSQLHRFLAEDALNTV

Row | SMILES | IC50 (DDR1 [1]) [nM] | Ki (DDR1 [2]; [3]) [nM] | Ki (DDR2; [4]) [nM] | Ki (DDR1 [2]; [5]) [nM] | Ki (DDR2; [6]) [nM]
1 | CC1Cc2c(C(=O)Nc3cccc(C(F)(F)F)c3)csc2CN1Cc1cnc2cnccn12 (single isomer, unassigned) [Example 105, 6-(imidazo[1,2-a]pyrazin-3-ylmethyl)-5-methyl-N-(3-(trifluoromethyl)phenyl)-4,5,6,7-tetrahydrothieno[2,3-c]pyridine-3-carboxamide] | 50 to 80 | < 25 | < 25 |  | 
2 | CC1c2scc(C(=O)Nc3cccc(C(F)(F)F)c3)c2CCN1Cc1cnc2[nH]ccc2c1 (single isomer, unassigned) [Example 107, 6-((1H-pyrrolo[2,3-b]pyridin-5-yl)methyl)-7-methyl-N-(3-(trifluoromethyl)phenyl)-4,5,6,7-tetrahydrothieno[2,3-c]pyridine-3-carboxamide] | < 25 | < 25 | < 25 |  | 
3 | Cc1ccc(-n2nc(C(C)(C)C)cc2NC(=O)c2csc3c2CCN(C(=O)c2cnc4ccccn24)C3)cc1 [Example 2, N-(3-(tert-butyl)-1-(p-tolyl)-1H-pyrazol-5-yl)-6-(imidazo[1,2-a]pyridine-3-carbonyl)-4,5,6,7-tetrahydrothieno[2,3-c]pyridine-3-carboxamide] | 25 to 50 | < 25 | < 25 |  | 
4 | CC(C)(C)c1cc(NC(=O)c2csc3c2CCN(C(=O)c2cnc4ccccn24)C3)n(-c2ccc(F)cc2)n1 [Example 5, N-(3-(tert-butyl)-1-(4-fluorophenyl)-1H-pyrazol-5-yl)-6-(imidazo[1,2-a]pyridine-3-carbonyl)-4,5,6,7-tetrahydrothieno[2,3-c]pyridine-3-carboxamide] | 25 to 50 | < 25 | < 25 |  | 
5 | CC(C)(C)c1cc(NC(=O)c2csc3c2CCN(C(=O)c2cnc4ccccn24)C3)n(-c2ccccc2)n1 [Example 6, N-(3-(tert-butyl)-1-phenyl-1H-pyrazol-5-yl)-6-(imidazo[1,2-a]pyridine-3-carbonyl)-4,5,6,7-tetrahydrothieno[2,3-c]pyridine-3-carboxamide] | 25 to 50 | < 25 | < 25 |  | 
6 | O=C(Nc1cc(F)cc(OC(F)(F)F)c1)c1csc2c1CCN(C(=O)c1cnc3ccccn13)C2 [Example 10, N-(3-fluoro-5-(trifluoromethoxy)phenyl)-6-(imidazo[1,2-a]pyridine-3-carbonyl)-4,5,6,7-tetrahydrothieno[2,3-c]pyridine-3-carboxamide] | < 25 | < 25 | < 25 |  | 
7 | O=C(Nc1cc(CN2CCCC2)cc(C(F)(F)F)c1)c1csc2c1CCN(C(=O)c1cnc3ccccn13)C2 [Example 11] | < 25 | < 25 | < 25 |  | 
8 | O=C(Nc1ccc(OC2COC2)c(C(F)(F)F)c1)c1csc2c1CCN(C(=O)c1cnc3ccccn13)C2 [Example 13, 6-(imidazo[1,2-a]pyridine-3-carbonyl)-N-(4-(oxetan-3-yloxy)-3-(trifluoromethyl)phenyl)-4,5,6,7-tetrahydrothieno[2,3-c]pyridine-3-carboxamide] | < 25 | < 25 | < 25 |  | 
9 | O=C(Nc1ccc(OCC2COC2)c(C(F)(F)F)c1)c1csc2c1CCN(C(=O)c1cnc3ccccn13)C2 [Example 14, 6-(imidazo[1,2-a]pyridine-3-carbonyl)-N-(4-(oxetan-3-ylmethoxy)-3-(trifluoromethyl)phenyl)-4,5,6,7-tetrahydrothieno[2,3-c]pyridine-3-carboxamide] | < 25 | < 25 | < 25 |  | 
10 | COCCOc1ccc(NC(=O)c2csc3c2CCN(C(=O)c2cnc4ccccn24)C3)cc1C(F)(F)F [Example 15, 6-(imidazo[1,2-a]pyridine-3-carbonyl)-N-(4-(2-methoxyethoxy)-3-(trifluoromethyl)phenyl)-4,5,6,7-tetrahydrothieno[2,3-c]pyridine-3-carboxamide] | 25 to 50 | < 25 | < 25 |  | 
11 | O=C(Nc1ccc(OCCO)c(C(F)(F)F)c1)c1csc2c1CCN(C(=O)c1cnc3ccccn13)C2 [Example 16, N-(4-(2-hydroxyethoxy)-3-(trifluoromethyl)phenyl)-6-(imidazo[1,2-a]pyridine-3-carbonyl)-4,5,6,7-tetrahydrothieno[2,3-c]pyridine-3-carboxamide] | < 25 | < 25 | < 25 |  | 
12 | O=C(Nc1ccnc(C(F)(F)F)c1)c1csc2c1CCN(C(=O)c1cnc3ccccn13)C2 [Example 17, 6-(imidazo[1,2-a]pyridine-3-carbonyl)-N-(2-(trifluoromethyl)pyridin-4-yl)-4,5,6,7-tetrahydrothieno[2,3-c]pyridine-3-carboxamide] | 25 to 50 | < 25 | < 25 |  | 
13 | CN1CCN(Cc2ccc(NC(=O)c3csc4c3CCN(C(=O)c3cnc5ccccn35)C4)cc2C(F)(F)F)CC1 [Example 18, 6-(imidazo[1,2-a]pyridine-3-carbonyl)-N-(4-((4-methylpiperazin-1-yl)methyl)-3-(trifluoromethyl)phenyl)-4,5,6,7-tetrahydrothieno[2,3-c]pyridine-3-carboxamide] | 50 to 80 | < 25 | < 25 |  | 
14 | CN(C)Cc1cc(NC(=O)c2csc3c2CCN(C(=O)c2cnc4ccccn24)C3)cc(C(F)(F)F)c1 [Example 19, N-(3-((dimethylamino)methyl)-5-(trifluoromethyl)phenyl)-6-(imidazo[1,2-a]pyridine-3-carbonyl)-4,5,6,7-tetrahydrothieno[2,3-c]pyridine-3-carboxamide] | < 25 | < 25 | < 25 |  | 
15 | O=C(Nc1cc(C(F)(F)F)ncn1)c1csc2c1CCN(C(=O)c1cnc3ccccn13)C2 [Example 21, 6-(imidazo[1,2-a]pyridine-3-carbonyl)-N-(6-(trifluoromethyl)pyrimidin-4-yl)-4,5,6,7-tetrahydrothieno[2,3-c]pyridine-3-carboxamide] | 25 to 50 | < 25 | < 25 |  | 
16 | CN1CCN(Cc2cc(NC(=O)c3cc4c(s3)CN(C(=O)c3cnc5ccccn35)CC4)cc(C(F)(F)F)c2)CC1 [Example C1, 6-(imidazo[1,2-a]pyridine-3-carbonyl)-N-(3-((4-methylpiperazin-1-yl)methyl)-5-(trifluoromethyl)phenyl)-4,5,6,7-tetrahydrothieno[2,3-c]pyridine-2-carboxamide] |  |  |  | 312 | 531
17 | CN1CCN(Cc2cc(NC(=O)c3cc4c(s3)CCN(C(=O)c3cnc5ccccn35)C4)cc(C(F)(F)F)c2)CC1 [Example C2, 5-(imidazo[1,2-a]pyridine-3-carbonyl)-N-(3-((4-methylpiperazin-1-yl)methyl)-5-(trifluoromethyl)phenyl)-4,5,6,7-tetrahydrothieno[3,2-c]pyridine-2-carboxamide] |  |  |  | 195 | 160
